Test results from patent publication US11154529B2, “Phosphaplatin liquid formulations” (Phosplatin Therapeutics Inc., priority 2016, dated 2021).
Values joined by “and” are separate entries in the source; they are usually repeats but may differ in a detail not shown here. Identical values can stand only once.

Experiment: Ready-to-use formulation stability at 25° C./60% RH, 5 mg/mL (R,R)-pyrodach-2 in 10 mM Potassium Phosphate Buffer at pH 7.4, 10 mL vials
Format: physicochemical
Protocol: A scalable and commercially viable process for the manufacture of a ready-to-use formulation of (R,R)-pyrodach-2 in 10 mM buffer adjusted to a pH of 7.0-7.5 comprises the steps of: a) preparing a 10 mM aqueous solution of buffer; b) adding sufficient hydroxide base to effect neutralization of the added (R,R)-pyrodach-2 to reach a pH of about 7; c) adding (R,R)-pyrodach-2 and allowing it to dissolve; d) if necessary adding additional hydroxide to adjust the pH into a range of about 7.0-7.5; and e) filtering the solution under sterile conditions, filling the solution into glass vials, and covering it with a stopper and/or a cap. Stability data on two large batches of 5 mg/mL (R,R)-pyrodach-2 in 10 mM potassium phosphate buffer were generated. One such batch at pH=7.2 was evaluated at both 25° C./60% RH and refrigerated (2-8° C.) conditions, with data summarized in Table 4 and Table 5, respectively. […] Similar observations have been made for the ready-to-use liquid formulation at pH7.4, as illustrated in Table 6 and Table 7.
• Transfer 4564.6 mg±0.5 mg of potassium phosphate dibasic, trihydrate to a 2-L volumetric flask. • Fill flask to approximately 75% volume with water, swirl as needed to dissolve all solids. • Volumetrically transfer 32.0 mL of 1N KOH to flask. • Dilute flask to volume with water and mix well. • Record pH of final solution. This is the diluent. • Transfer 7653.1 mg±0.5 mg of (R,R)-pyrodach-2 to a compounding vessel. • Transfer 1500 mL of the diluent to the vessel and stir to dissolve solids. • Record pH of final solution. • Pass entire solution through a 0.22 μm sterile filter membrane into a sterile collection vessel. • Calculate (R,R)-pyrodach-2 solution concentration
To a […] glass beaker equipped with mechanical mixer was add 24645.5 g of sterile water for injection. With agitation 47.03 gm of dibasic potassium phosphate USP was added and the solids allowed to dissolve. To the stirred solution was added 253.8 gm of 1.00 N potassium hydroxide. Sterile water for injection USP (900.0 gm) was used as a rinse to facilitate both additions. With vigorous agitation, (R,R)-pyrodach-2 (201.87 gm) was slowly added and agitation continued until all of the solids dissolved. Sterile water for injection USP (900.0 gm) was used as a rinse to facilitate the addition. The pH was determined to be 6.7. A total of 85 mL of 1.00 N potassium hydroxide was added in 5.0 mL aliquots to adjust the pH to 7.3. The solution was sterile filtered through 0.22μ Millipore Millipack filter and aseptically filled, 10 ml top a vial in 10 mL in 10 cc Wheaton clear molded vails, stoppered with a 20 mm stopper and crimp seal capped.

What does the source list for O=P1(O)OP(=O)(O)[O][Pt]2([NH][C@@H]3CCCC[C@H]3[NH]2)[O]1 (stereo partly drawn) [(R,R)-pyrodach-2, (R,R)-trans-1,2-cyclohexanediamine-(dihydrogenpyrophosphato)platinum(II)]?
(DACH) Pt-diaquo (~RRT 0.3) (1 Month): 0.16%; (DACH) Pt-monoaquo (~RRT 0.7) (1 Month): 1.12%; Assay (Potency) (1 Month): 98.4%; PT-112 Dimer (~RRT 4.0) (1 Month): 0.35%; RRT 0.50 (1 Month): 0.07%; RRT 0.56 (1 Month): 0.15%; RRT 0.68 (1 Month): 0.21%; RRT 0.86 (1 Month): 0.06%; RRT 3.1-3.2 (1 Month): 0.56%; Total Related Substances (1 Month): 3%; pH (1 Month): 7.4; (DACH) Pt-diaquo (~RRT 0.3) (3 Month): 0.15%; (DACH) Pt-monoaquo (~RRT 0.7) (3 Month): 0.92%; Assay (Potency) (3 Month): 99.2%; PT-112 Dimer (~RRT 4.0) (3 Month): 0.33%; RRT 0.50 (3 Month): 0.11%; RRT 0.56 (3 Month): 0.20%; RRT 0.68 (3 Month): 0.11%; RRT 0.86 (3 Month): 0.05%; RRT 3.1-3.2 (3 Month): 0.77%; RRT 3.58 (3 Month): 0.14%; Total Related Substances (3 Month): 3%; pH (3 Month): 7.4; (DACH) Pt-diaquo (~RRT 0.3) (6 Month): 0.19%; (DACH) Pt-monoaquo (~RRT 0.7) (6 Month): 0.30%; Assay (Potency) (6 Month): 96.7%; PT-112 Dimer (~RRT 4.0) (6 Month): 0.36%; RRT 0.42 (6 Month): 0.06%; RRT 0.46 (6 Month): 0.09%; RRT 0.50 (6 Month): 0.31%; RRT 0.56 (6 Month): 0.09%; RRT 0.68 (6 Month): 0.16%; RRT 0.86 (6 Month): 0.07%; RRT 3.1-3.2 (6 Month): 0.86%; RRT 3.58 (6 Month): 0.37%; RRT 4.95 (6 Month): 0.06%; Total Related Substances (6 Month): 3%; pH (6 Month): 7.4; Particulate Matter (Light Obscuration) (6 Month, first value): 87 particles particles per container; Particulate Matter (Light Obscuration) (6 Month, second value): 3 particles particles per container; (DACH) Pt-diaquo (~RRT 0.3) (9 Month): 0.14%; (DACH) Pt-monoaquo (~RRT 0.7) (9 Month): 0.79%; Assay (Potency) (9 Month): 98.2%; PT-112 Dimer (~RRT 4.0) (9 Month): 0.34%; RRT 0.42 (9 Month): 0.08%; RRT 0.46 (9 Month): 0.08%; RRT 0.50 (9 Month): 0.39%; RRT 0.56 (9 Month): 0.11%; RRT 0.68 (9 Month): 0.11%; RRT 0.86 (9 Month): 0.06%; RRT 3.1-3.2 (9 Month): 0.84%; RRT 3.41 (9 Month): 0.08%; RRT 3.58 (9 Month): 0.65%; RRT 4.95 (9 Month): 0.21%; Total Related Substances (9 Month): 4%; pH (9 Month): 7.4; (DACH) Pt-diaquo (~RRT 0.3) (12 Month): 0.11%; (DACH) Pt-monoaquo (~RRT 0.7) (12 Month): 0.92%; Assay (Potency) (12 Month): 98.0%; PT-112 Dimer (~RRT 4.0) (12 Month): 0.30%; RRT 0.42 (12 Month): 0.10%; RRT 0.46 (12 Month): 0.07%; RRT 0.50 (12 Month): 0.38%; RRT 0.56 (12 Month): 0.19%; RRT 0.68 (12 Month): 0.11%; RRT 0.86 (12 Month): 0.05%; RRT 3.1-3.2 (12 Month): 0.82%; RRT 3.58 (12 Month): 0.70%; RRT 4.95 (12 Month): 0.34%; Total Related Substances (12 Month): 4%; pH (12 Month): 7.5; Particulate Matter (Light Obscuration) (12 Month, first value): 118 particles per container; Particulate Matter (Light Obscuration) (12 Month, second value): 7 particles particles per container; (DACH) Pt-diaquo (~RRT 0.3) (15 Month): 0.13%; (DACH) Pt-monoaquo (~RRT 0.7) (15 Month): 0.92%; Assay (Potency) (15 Month): 96.8%; PT-112 Dimer (~RRT 4.0) (15 Month): 0.28%; RRT 0.42 (15 Month): 0.12%; RRT 0.46 (15 Month): 0.08%; RRT 0.50 (15 Month): 0.44%; RRT 0.56 (15 Month): 0.20%; RRT 0.68 (15 Month): 0.11%; RRT 0.86 (15 Month): 0.05%; RRT 3.1-3.2 (15 Month): 0.78%; RRT 3.58 (15 Month): 0.78%; RRT 4.95 (15 Month): 0.51%; Total Related Substances (15 Month): 4%; pH (15 Month): 7.5; (DACH) Pt-diaquo (~RRT 0.3) (18 Month): 0.12%; (DACH) Pt-monoaquo (~RRT 0.7) (18 Month): 0.78%; Assay (Potency) (18 Month): 96.9%; PT-112 Dimer (~RRT 4.0) (18 Month): 0.29%; RRT 0.42 (18 Month): 0.15%; RRT 0.46 (18 Month): 0.13%; RRT 0.50 (18 Month): 0.59%; RRT 0.56 (18 Month): 0.09%; RRT 0.68 (18 Month): 0.08%; RRT 0.86 (18 Month): 0.05%; RRT 3.1-3.2 (18 Month): 0.73%; RRT 3.44 (18 Month): 0.12%; RRT 3.58 (18 Month): 1.06%; RRT 4.95 (18 Month): 0.69%; Total Related Substances (18 Month): 5%; pH (18 Month): 7.5; (DACH) Pt-diaquo (~RRT 0.3) (21 Month): 0.11%; (DACH) Pt-monoaquo (~RRT 0.7) (21 Month): 1.13%; Assay (Potency) (21 Month): 96.3%; PT-112 Dimer (~RRT 4.0) (21 Month): 0.28%; RRT 0.42 (21 Month): 0.16%; RRT 0.46 (21 Month): 0.12%; RRT 0.50 (21 Month): 0.60%; RRT 0.56 (21 Month): 0.17%; RRT 0.68 (21 Month): 0.12%; RRT 3.1-3.2 (21 Month): 0.75%; RRT 3.41 (21 Month): 0.07%; RRT 3.44 (21 Month): 0.05%; RRT 3.58 (21 Month): 1.12%; RRT 4.95 (21 Month): 0.89%; Total Related Substances (21 Month): 6%; pH (21 Month): 7.4; (DACH) Pt-diaquo (~RRT 0.3) (24 Month): 0.11%; (DACH) Pt-monoaquo (~RRT 0.7) (24 Month): 0.85%; Assay (Potency) (24 Month): 94.6%; PT-112 Dimer (~RRT 4.0) (24 Month): 0.28%; RRT 0.42 (24 Month): 0.18%; RRT 0.46 (24 Month): 0.12%; RRT 0.50 (24 Month): 0.70%; RRT 0.56 (24 Month): 0.17%; RRT 0.68 (24 Month): 0.13%; RRT 0.86 (24 Month): 0.05%; RRT 3.1-3.2 (24 Month): 0.72%; RRT 3.29 (24 Month): 0.06%; RRT 3.44 (24 Month): 0.05%; RRT 3.58 (24 Month): 1.07%; RRT 4.95 (24 Month): 1.12%; Total Related Substances (24 Month): 6%; pH (24 Month): 7.4; (DACH) Pt-diaquo (~RRT 0.3) (Initial): 0.16%; (DACH) Pt-monoaquo (~RRT 0.7) (Initial): 0.84%; Assay (Potency) (Initial): 98.1%; PT-112 Dimer (~RRT 4.0) (Initial): 0.34%; RRT 0.50 (Initial): 0.06%; RRT 0.56 (Initial): 0.08%; RRT 0.68 (Initial): 0.09%; RRT 3.1-3.2 (Initial): 0.11%; Total Related Substances (Initial): 2%; pH (Initial): 7.4; Particulate Matter (Light Obscuration) (Initial, first value): 30 particles particles per container and 30 particles per particles per container; Particulate Matter (Light Obscuration) (Initial, second value): 11 particles particles per container and 11 particles per particles per container
